In patent US12090225B2 (Avalyn Pharma Inc., priority 2018, dated 2024):
Where two headings read alike, the source gives them in different places. Blank lines part the entries; values can stand above or below the compound they belong to.

Key:
[1] = Temperature-solubility of nintedanib HBr Pattern 4 and Pattern X; type: physicochemical; settings: distilled water, over 48 hours
Procedure: During this time period, the samples were periodically taken out of the storage, vortexed, and returned to storage condition. At the end of the incubation period, the test solutions were filtered through a 0.22 μm nylon membrane syringe filter and analyzed by uv/vis spectrophotometry (at 390 nm) for drug concentration. Table 29 summarizes the solubility of both salt forms as a function of temperature. The solubility of both polymorphic forms increases with increasing temperature. Both polymorphic forms have similar solubility profiles.

[2] = pH-solubility of nintedanib HBr Pattern 4 and Pattern X; type: physicochemical; settings: distilled water, over 48 hours, UV/vis 390 nm, unit assumed
Procedure: The solubility of Pattern 4 and Pattern X at various pH values were determined by UV/vis spectrophotometry. Excess Pattern 4 and Pattern X HBr salts were added to distilled water, vortexed at high speed and the pH was adjusted to the target value by adding 1N HCl or 1N NaOH. The test solutions were mixed on a magnetic stirrer for over 48 hours, then filtered through a 0.22 μm nylon membrane syringe filter and analyzed by uv/vis spectrophotometry at 390 nm. […] The solubility of both polymorphic forms decreases with increasing pH. Both polymorphic forms have similar solubility profile.

[3] = Pattern stability screen of potential salts (40° C./75% RH, XRPD); type: physicochemical
[4] = Apparent solubility of nintedanib HBr laboratory scale batches; type: physicochemical
From the text: During this process, a new polymorphic form was identified (pattern X)

[5] = Inhaled pharmacokinetics of nintedanib salt forms (intratracheal); type: in vivo, C57BL/6 mice; settings: C57BL/6 mice; for AUC 0-last / Elimination half-life (alpha-phase): 1.0 mg/kg IT; for Cmax: 1.0 mg/kg IT (base equivalent)
[6] = Aqueous solubility assessment of salts; type: physicochemical
[7] = Human inhaled dose projection vs Ofev 150 mg oral; settings: 0.42 mg inhaled vs Ofev 150 mg oral
[8] = Inhaled pharmacokinetics of fixed combination nintedanib esylate and pirfenidone; type: in vivo, C57BL/6 mice; settings: 10.0 mg/kg each IT; for half-life: read-out: Elimination half-life (alpha-phase)
Procedure: Plasma and lung tissue samples were taken 2, 5, 10, 20, 40 min and 1, 2, and 4 hours post dose. Nintedanib was extracted and quantitated as μg/mL plasma and μg/gram lung tissue.

[9] = Disproportionation/hydration studies (pH, XRPD pattern); type: physicochemical
From the text: No XRPD data could be compiled on the hydration or disproportionation of the salt due to the high solubility in water and acetone/water mixtures.
The salt only remained Pattern 1 at 0.3 aw. New patterns 6 and 7 are likely hydrated due to the high water activity conditions for production.

[10] = 7 day stability testing of salts (40° C./75% RH, 80° C., ambient light; HPLC purity, XRPD); type: physicochemical; settings: for XRPD pattern after 7 day stability testing: listed as phosphate salt
Procedure: High Performance Liquid Chromatography-Ultraviolet Detection (HPLC-UV): Instrument: Dionex Ultimate 3000; Column: Acquity CSH C18 100 mm×2.1 mm 1.7 μm; Column Temperature: 50° C.; Autosampler Temperature: Ambient; UV wavelength: 210 nm; Injection Volume: 4 μL; Flow Rate: 0.6 mL/min; Mobile Phase A: 0.1% formic acid in water; Mobile Phase B: 0.1% formic acid in acetonitrile. The HPLC method used the gradient in Table 2.
FT-IR appeared to be consistent with the structure. […] The material was physically stable to changes in temperature and humidity when stored for one week.
A new, poorly crystalline pattern was produced when stored at 40° C./75% RH—Pattern 4.
Purity of these materials remained unchanged (as shown in Table) apart from the sample stored at ambient light, where a 0.5% drop in purity was observed.

[11] = Dynamic Vapour Sorption (DVS) hygroscopicity; type: physicochemical; settings: for DVS mass uptake at 90% RH: 25° C., uptake from input material; for Hygroscopicity: DVS
Procedure: Dynamic Vapour Sorption (DVS). Approximately, 10 mg of sample was placed into a mesh vapour sorption balance pan and loaded into a DVS-1 or DVS Advantage dynamic vapour sorption balance by Surface Measurement Systems. The sample was subjected to a ramping profile from 40-90% relative humidity (RH) at 10% increments, maintaining the sample at each step until a stable weight had been achieved (dm/dt 0.004%, minimum step length 30 minutes, maximum step length 500 minutes) at 25° C. After completion of the sorption cycle, the sample was dried using the same procedure to 0% RH and then a second sorption cycle back to 40% RH. Two cycles were performed. The weight change during the sorption/desorption cycles were plotted, allowing for the hygroscopic nature of the sample to be determined. XRPD analysis was then carried out on any solid retained.

[12] = female, C57BL/6, mouse, inhaled or intranasal, Lung (whole lung homogenate)
[13] = female, C57BL/6, mouse, inhaled or intranasal, Plasma
[14] = Water Activity 0.3 (acetone/water)
[15] = Water Activity 0.6 (acetone/water)
[16] = Water Activity 0.9 (acetone/water)

- XRPD pattern after 72 hrs 40° C./75% RH ([3]; Initial pattern 1): 1
Compound: N[C@@H](CC(=O)O)C(=O)O [L-Aspartic acid]

- Apparent Solubility [4]: 1020 µg/mL
Compound: Br.COC(=O)c1ccc2c(c1)NC(=O)C2=C(Nc1ccc(N(C)C(=O)CN2CCN(C)CC2)cc1)c1ccccc1 [AP069]

- pH (aqueous solubility measurement) ([6]; primary screen samples): 6.41
- XRPD pattern after 72 hrs 40° C./75% RH ([3]; Initial pattern 1): 1
- XRPD pattern after 72 hrs 40° C./75% RH ([3]; Initial pattern 2): 2(MU)
Compound: O=C(O)/C=C/C(=O)O [Fumarate]

- XRPD pattern after 72 hrs 40° C./75% RH ([3]; Initial pattern 1): 1
- XRPD pattern after 72 hrs 40° C./75% RH ([3]; Initial pattern 2): 2
Compound: Maleic acid

- AUC 0-last ([8]; Lung (whole lung homogenate)): 5.2 mg·h/kg
- Cmax [8, 12]: 279000 ng/g
- half-life [8, 12]: 0.7 min
- AUC(0-t) [8, 13]: 3800 ng·h/mL
- Cmax [8, 13]: 7900 ng/mL
- half-life [8, 13]: 8.9 min
Compound: Cc1ccc(=O)n(-c2ccccc2)c1 [Pirfenidone]

- Apparent Solubility [4]: 2050 µg/mL
Compound: Br.COC(=O)c1ccc2c(c1)NC(=O)C2=C(Nc1ccc(N(C)C(=O)CN2CCN(C)CC2)cc1)c1ccccc1 [AP177d]

- Apparent Solubility [4]: 1950 µg/mL
Compound: Br.COC(=O)c1ccc2c(c1)NC(=O)C2=C(Nc1ccc(N(C)C(=O)CN2CCN(C)CC2)cc1)c1ccccc1 [AP152]

- Apparent Solubility [4]: 1940 µg/mL
Compound: Br.COC(=O)c1ccc2c(c1)NC(=O)C2=C(Nc1ccc(N(C)C(=O)CN2CCN(C)CC2)cc1)c1ccccc1 [AP178d]

- XRPD pattern after 72 hrs 40° C./75% RH ([3]; Initial pattern 1): 1(FB)
- XRPD pattern after 72 hrs 40° C./75% RH ([3]; Initial pattern 2): 1
Compound: CC(=O)O [Acetate]

- Solubility (aqueous) [6]: <625 µg/mL
- pH (aqueous solubility measurement) [6]: 5.51
- XRPD pattern after 72 hrs 40° C./75% RH ([3]; Initial pattern 1): 2
- XRPD pattern after 72 hrs 40° C./75% RH ([3]; Initial pattern 2): 2
Compound: Saccharin

- Apparent Solubility [4]: 1010 µg/mL
Compound: Br.COC(=O)c1ccc2c(c1)NC(=O)C2=C(Nc1ccc(N(C)C(=O)CN2CCN(C)CC2)cc1)c1ccccc1 [AP178w]

- Apparent Solubility [4]: 1030 µg/mL
Compound: Br.COC(=O)c1ccc2c(c1)NC(=O)C2=C(Nc1ccc(N(C)C(=O)CN2CCN(C)CC2)cc1)c1ccccc1 [AP177w]

Continued, compound first:

Compound: Br.COC(=O)c1ccc2c(c1)NC(=O)/C2=C(\Nc1ccc(N(C)C(=O)CN2CCN(C)CC2)cc1)c1ccccc1 [Nintedanib HBr Pattern 4, Nintedanib hydrobromide, XRPD Pattern 4]
- Nintedanib HBr Solubility ([1]; 5° C.): 790 µg/mL
- Nintedanib HBr Solubility ([1]; 22° C.): 1380 µg/mL
- Nintedanib HBr Solubility ([1]; 40° C.): 3200 µg/mL
- solubility ([2]; pH 3.1): 2010 µg/mL
- solubility ([2]; pH 3.9): 1470 µg/mL
- solubility ([2]; pH 4.7): 1380 µg/mL
- solubility ([2]; pH 5.3): 1070 µg/mL

Compound: COC(=O)c1ccc2c(c1)NC(=O)/C2=C(\Nc1ccc(N(C)C(=O)CN2CCN(C)CC2)cc1)c1ccccc1.Cl [Nintedanib chloride]
- AUC 0-last ([5]; lung (whole lung homogenate)): 60.1 mg·h/kg
- Elimination half-life (alpha-phase) ([5]; lung (whole lung homogenate)): 3.9 min
- Cmax ([5]; plasma): 400 ng/mL
- AUC 0-last ([5]; plasma): 200 ng·h/mL
- Elimination half-life (alpha-phase) ([5]; plasma): 1.7 min

Compound: COC(=O)c1ccc2c(c1)NC(=O)/C2=C(\Nc1ccc(N(C)C(=O)CN2CCN(C)CC2)cc1)c1ccccc1.CS(=O)(=O)O [MSA]
- XRPD pattern after 72 hrs 40° C./75% RH ([3]; Initial pattern 1): 1
- XRPD pattern after 72 hrs 40° C./75% RH ([3]; Initial pattern 2): 1

Compound: COC(=O)c1ccc2c(c1)NC(=O)/C2=C(\Nc1ccc(N(C)C(=O)CN2CCN(C)CC2)cc1)c1ccccc1 [Inhaled nintedanib]
- % Pharmacokinetics (inhaled compared to oral), AUC ([7]; lung): 1047%
- % Pharmacokinetics (inhaled compared to oral), Cmax ([7]; lung): 2600%
- % Pharmacokinetics (inhaled compared to oral), AUC ([7]; plasma): 100%
- % Pharmacokinetics (inhaled compared to oral), Cmax ([7]; plasma): 83%

Compound: Br.COC(=O)c1ccc2c(c1)NC(=O)/C2=C(\Nc1ccc(N(C)C(=O)CN2CCN(C)CC2)cc1)c1ccccc1 [Nintedanib bromide]
- AUC 0-last ([5]; lung (whole lung homogenate)): 51.2 mg·h/kg
- Elimination half-life (alpha-phase) ([5]; lung (whole lung homogenate)): 4.1 min
- Cmax ([5]; plasma): 200 ng/mL
- AUC 0-last ([5]; plasma): 200 ng·h/mL
- Elimination half-life (alpha-phase) ([5]; plasma): 2.4 min

Compound: Br.COC(=O)c1ccc2c(c1)NC(=O)C2=C(Nc1ccc(N(C)C(=O)CN2CCN(C)CC2)cc1)c1ccccc1 [AP018]
- Apparent Solubility [4]: 2040 µg/mL

Compound: COC(=O)c1ccc2c(c1)NC(=O)/C2=C(\Nc1ccc(N(C)C(=O)CN2CCN(C)CC2)cc1)c1ccccc1.O=S(=O)(O)CCO [HESA]
- XRPD pattern after 72 hrs 40° C./75% RH ([3]; Initial pattern 1): 2
- XRPD pattern after 72 hrs 40° C./75% RH ([3]; Initial pattern 2): 2

Compound: COC(=O)c1ccc2c(c1)NC(=O)/C2=C(\Nc1ccc(N(C)C(=O)CN2CCN(C)CC2)cc1)c1ccccc1.O=P(O)(O)O.O=P(O)(O)O [Phosphate]
- pH Post-Agitation [9, 14]: 2.68
- pH Pre-Agitation [9, 14]: 3.08
- pH Post-Agitation [9, 15]: 2.52
- pH Pre-Agitation [9, 15]: 2.60
- pH Post-Agitation [9, 16]: 2.35
- pH Pre-Agitation [9, 16]: 2.34
- pH Post-Agitation ([9]; Water Activity 1.0 (water)): 1.78
- pH Pre-Agitation ([9]; Water Activity 1.0 (water)): 2.75
- pH at 6 h ([6]; salt in water, after agitation): 3.00
- pH at 18 h ([6]; salt in water, after agitation): 2.11
- Initial pH ([6]; salt in water, solubility assessment): 3.43
- XRPD pattern after 72 hrs 40° C./75% RH ([3]; Initial pattern 1): 1
- XRPD pattern after 72 hrs 40° C./75% RH ([3]; Initial pattern 2): 2
- Purity (%) ([10]; 40° C./75% RH, 7 day stability testing): 99.8%
- XRPD pattern after 7 day stability testing ([10]; 40° C./75% RH): Pattern 4
- XRPD pattern after 7 day stability testing ([10]; 80° C. and ambient conditions/light): remain Pattern 3
- Purity (%) ([10]; 80° C., 7 day stability testing): 99.2%
- Purity (%) ([10]; Ambient, 7 day stability testing): 99.6%
- Purity (%) ([10]; Input): 99.9%
- DVS mass uptake at 90% RH [11]: further 10.6% uptake up
- DVS mass uptake at 90% RH ([11]; listed as phosphate salt): ca. 10.6%
- Hygroscopicity [11]: Hygroscopic
- Hygroscopicity ([11]; listed as phosphate salt): hygroscopic

Compound: Br.COC(=O)c1ccc2c(c1)NC(=O)/C2=C(\Nc1ccc(N(C)C(=O)CN2CCN(C)CC2)cc1)c1ccccc1 [Nintedanib HBr Pattern X, Nintedanib hydrobromide, XRPD Pattern X]
- Nintedanib HBr Solubility ([1]; 5° C.): 650 µg/mL
- Nintedanib HBr Solubility ([1]; 22° C.): 1490 µg/mL
- Nintedanib HBr Solubility ([1]; 40° C.): 3410 µg/mL
- solubility ([2]; pH 3.1): 1860 µg/mL
- solubility ([2]; pH 3.9): 1720 µg/mL
- solubility ([2]; pH 4.4): 1490 µg/mL
- solubility ([2]; pH 5.1): 1400 µg/mL

Compound: Br.COC(=O)c1ccc2c(c1)NC(=O)C2=C(Nc1ccc(N(C)C(=O)CN2CCN(C)CC2)cc1)c1ccccc1 [AP036]
- Apparent Solubility [4]: 970 µg/mL

Compound: Br.COC(=O)c1ccc2c(c1)NC(=O)/C2=C(\Nc1ccc(N(C)C(=O)CN2CCN(C)CC2)cc1)c1ccccc1 [AP143]
- Apparent Solubility [4]: 960 µg/mL

Compound: Br.COC(=O)c1ccc2c(c1)NC(=O)C2=C(Nc1ccc(N(C)C(=O)CN2CCN(C)CC2)cc1)c1ccccc1 [AP064]
- Apparent Solubility [4]: 1960 µg/mL

Compound: O=S(=O)(O)O [Sulfuric acid]
- XRPD pattern after 72 hrs 40° C./75% RH ([3]; Initial pattern 1): 1
- XRPD pattern after 72 hrs 40° C./75% RH ([3]; Initial pattern 2): 1
- XRPD pattern after 72 hrs 40° C./75% RH ([3]; Initial pattern 3): 3
- XRPD pattern after 72 hrs 40° C./75% RH ([3]; Initial pattern 4): 3
